One series addresses T1, human M3 mAChR (Homo sapiens, UniProt P20309).
T1 construct: expressed in transfected cells
Briefly: Whole-cell functional agonist activity, FLIPR Ca2+ release, U2OS-based human M3 mAChR stable cell line. The source says:
(§1) Whole-cell functional agonist activity in cells expressing recombinant human muscarinic receptor subtypes.
(§2) ThermoFisher's FLIPR™ (Fluorescence Imaging Plate Reader) was used to quantify Ca^2+ release, a functional effect associated with Gaq-coupled M1 and M5 mAChRs. CisBio's phospho-ERK (pERK) Thr202/Tyr204 was used to evaluate Gai/o-coupled M2 and M4 mAChRs responses.
One day before the assay, M1, M3, and M5 cells were thawed out and plated at 10,000 cells/well into black-walled, clear-bottom, Poly-D-lysine coated 384-well microplates and incubated at 37° C. and 5% CO2 in MEME+10% FBS+1× penicillin/streptomycin/glutamine, for the M1 and M3 cell lines and F-12+10% FBS+1× penicillin/streptomycin/glutamine for the M5 cell line. On the day of the test, the media was aspirated and replaced with […] fluo-4 dye loading buffer (1× dye, 1× additive A and 2.5 mM fresh probenecid in HBSS and 20 mM HEPES) and incubated at 37° C. and 5% CO2 for 45 minutes. After the incubation, cells were removed from the incubator, […] of HBSS and 20 mM HEPES was added for a total volume of […], and the cells were allowed to equilibrate at room temperature for 15 minutes in the dark before compounds were applied, by adding 4× compound solution in […] of HBSS, 0.4% DMSO and 20 mM HEPES buffer (made from a 10 mM compound stock solution in 100% DMSO), and responses were recorded for 2 minutes in FLIPR Tetra after compound administration. The M1 and M5 responses were analyzed using the CBIS data analysis suite (ChemInnovation, CA).
(§3) Percentage activity was calculated using the following formula: % Activity=100%×(mean RFU of test sample mean RFU of vehicle control)/(mean MAX RFU control ligand mean RFU of vehicle control) where RFU is relative fluorescence unit. The M2 and the M4 cells were thawed out one day before the assay and plated at 2,000 and 1,000 cells per well, respectively, in […] of DMEM/F12+10% FBS in ProxiPlate 384-well white-walled, white-bottom tissue culture-treated plates and incubated at 37° C. and 5% CO2 overnight. Before the assay, cells were serum-starved at 37° C. in 5% CO2 for 4 hours by replacing culture media with […] of F12 media with 8 mM HEPES. The pERK assay was run according to assay kit instructions with minor volume modifications outlined below.

A further series has as its target T2, human M4 mAChR (Homo sapiens, UniProt P08173).
T2 construct: expressed in transfected cells
T2 sequence (P08173 1-479): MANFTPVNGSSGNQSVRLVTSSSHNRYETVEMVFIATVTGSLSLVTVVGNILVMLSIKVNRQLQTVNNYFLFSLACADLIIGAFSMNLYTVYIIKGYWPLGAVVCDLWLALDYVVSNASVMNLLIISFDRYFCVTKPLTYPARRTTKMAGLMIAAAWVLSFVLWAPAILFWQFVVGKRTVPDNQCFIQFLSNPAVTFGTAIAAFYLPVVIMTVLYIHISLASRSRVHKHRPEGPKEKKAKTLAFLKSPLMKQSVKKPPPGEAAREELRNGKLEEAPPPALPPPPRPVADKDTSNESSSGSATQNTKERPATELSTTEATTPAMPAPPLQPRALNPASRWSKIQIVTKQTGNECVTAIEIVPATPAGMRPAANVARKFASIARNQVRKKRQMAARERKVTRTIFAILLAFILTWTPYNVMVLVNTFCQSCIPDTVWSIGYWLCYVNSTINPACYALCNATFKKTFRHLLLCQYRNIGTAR
Briefly: Whole-cell functional agonist activity, phospho-ERK (pERK), CHOK1-based human M4 mAChR stable cell line. As to conditions: top of curve, % of min (DMSO) and max (10 mM Acetylcholine) responses. How it is done:
as §1, §2, §3
(§4) Compound addition was carried out by adding 3× compound solution in […] of media with 0.3% DMSO (made from a 10 mM compound stock solution in 100% DMSO) for 5 minutes before the reaction was terminated by adding […] lysis and blocking solution. Cells were left in the lysis solution for 30 minutes before […] of antibody (Eu and d2) solution was added for an additional 2-hour incubation while protected from light. The plates were then read on laser Pherastar using the TR-FRET protocol.

The next series has as its target T3, human M2 mAChR (Homo sapiens, UniProt P08172).
T3 construct: expressed in transfected cells
T3 sequence (P08172 1-466): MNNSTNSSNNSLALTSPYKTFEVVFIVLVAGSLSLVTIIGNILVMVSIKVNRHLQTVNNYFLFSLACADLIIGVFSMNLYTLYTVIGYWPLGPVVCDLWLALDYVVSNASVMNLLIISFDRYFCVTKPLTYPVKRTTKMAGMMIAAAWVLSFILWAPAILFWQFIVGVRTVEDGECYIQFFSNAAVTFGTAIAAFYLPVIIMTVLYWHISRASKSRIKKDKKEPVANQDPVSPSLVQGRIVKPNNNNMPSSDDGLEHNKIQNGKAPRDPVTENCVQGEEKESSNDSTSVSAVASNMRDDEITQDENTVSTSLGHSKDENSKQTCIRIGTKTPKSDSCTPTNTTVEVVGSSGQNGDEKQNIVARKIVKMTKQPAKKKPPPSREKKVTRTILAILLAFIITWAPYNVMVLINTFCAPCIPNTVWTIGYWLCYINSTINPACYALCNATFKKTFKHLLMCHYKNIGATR
Put plainly: Whole-cell functional agonist activity, phospho-ERK (pERK), CHOK1-based human M2 mAChR stable cell line. As to conditions: top of curve, % of min (DMSO) and max (10 mM Acetylcholine) responses. How it is done: as §1, §2, §3, §4

The next series deals with T4, human M5 mAChR (Homo sapiens, UniProt P08912).
T4 construct: expressed in transfected cells
T4 sequence (P08912 1-532): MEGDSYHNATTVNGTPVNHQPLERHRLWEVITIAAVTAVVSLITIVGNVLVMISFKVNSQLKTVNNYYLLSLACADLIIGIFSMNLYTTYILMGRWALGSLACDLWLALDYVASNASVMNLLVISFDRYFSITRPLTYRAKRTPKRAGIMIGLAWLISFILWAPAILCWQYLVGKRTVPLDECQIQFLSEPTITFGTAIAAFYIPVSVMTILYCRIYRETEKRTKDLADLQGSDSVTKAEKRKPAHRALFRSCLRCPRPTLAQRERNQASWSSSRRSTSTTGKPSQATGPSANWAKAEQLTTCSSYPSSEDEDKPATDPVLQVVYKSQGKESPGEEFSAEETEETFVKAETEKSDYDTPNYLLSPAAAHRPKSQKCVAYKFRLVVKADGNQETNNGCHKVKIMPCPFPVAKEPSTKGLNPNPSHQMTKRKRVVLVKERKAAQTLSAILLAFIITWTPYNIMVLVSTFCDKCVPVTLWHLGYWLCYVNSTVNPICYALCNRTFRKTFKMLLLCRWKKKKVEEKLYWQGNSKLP
Briefly: Whole-cell functional agonist activity, FLIPR Ca2+ release, CHOK1-based human M5 mAChR stable cell line. The following applies: top of curve, % activity vs MAX control ligand, FLIPR Ca2+.
Text: as §1, §2
One day before the assay, M1, M3, and M5 cells were thawed out and plated at 10,000 cells/well into black-walled, clear-bottom, Poly-D-lysine coated 384-well microplates and incubated at 37° C. and 5% CO2 in MEME+10% FBS+1× penicillin/streptomycin/glutamine, for the M1 and M3 cell lines and F-12+10% FBS+1× penicillin/streptomycin/glutamine for the M5 cell line. […] The M1 and M5 responses were analyzed using the CBIS data analysis suite (ChemInnovation, CA).
as §3

The nature of series [1]: Pharmacokinetics following single oral dose administration in male Sprague-Dawley rats. It is filed as in vivo. The following applies: rat, oral administration of tartrate salts 25 mg/kg. How it is done:
In-Vivo Assessment of Pharmacokinetics Following Oral Dose Administration in Male Sprague-Dawley Rats
Blood samples were collected from all animals in Groups 1-3 at 0.25, 0.5, 1, 2, 4, 6, 8, 12, and 24 hours post-dose, with each animal, bled at all time points. […] The slopes of the elimination phase of the concentrations vs. time curve used to calculate the T1/2 were determined by log-linear regression.
PK analyses were performed and validated using Phoenix® WinNonlin® version 8.0.

T1 sequence (P20309 whole entry): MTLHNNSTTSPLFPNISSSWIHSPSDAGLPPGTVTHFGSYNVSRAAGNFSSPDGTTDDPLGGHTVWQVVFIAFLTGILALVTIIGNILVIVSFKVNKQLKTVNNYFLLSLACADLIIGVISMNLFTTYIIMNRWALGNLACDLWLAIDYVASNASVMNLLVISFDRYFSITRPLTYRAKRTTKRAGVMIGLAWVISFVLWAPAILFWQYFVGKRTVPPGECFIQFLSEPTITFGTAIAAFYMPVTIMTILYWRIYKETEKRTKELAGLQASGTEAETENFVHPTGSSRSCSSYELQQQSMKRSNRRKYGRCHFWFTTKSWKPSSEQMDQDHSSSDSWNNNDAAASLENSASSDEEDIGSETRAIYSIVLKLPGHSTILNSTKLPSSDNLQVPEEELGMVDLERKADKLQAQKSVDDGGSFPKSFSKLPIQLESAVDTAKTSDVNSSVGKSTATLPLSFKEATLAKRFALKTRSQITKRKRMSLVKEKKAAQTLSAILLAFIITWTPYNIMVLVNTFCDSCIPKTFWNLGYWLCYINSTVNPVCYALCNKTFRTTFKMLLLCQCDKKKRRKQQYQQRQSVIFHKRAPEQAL

In the case of `CCCCCCOc1nsnc1C1=CCCN(C)C1` [Xanomeline, 3-(hexyloxy)-4-(1-methyl-1,2,5,6-tetrahydropyridin-3-yl)-1,2,5-thiadiazole, reference compound], the EC50 – broadly, the concentration giving half of the maximal effect – on human M3 mAChR (agonist, FLIPR Ca2+ release, U2OS human M3 cells) was over 10 µM. Besides, the maximal effect (Emax) – broadly, the size of the effect at its maximum, as opposed to the concentration needed – on human M3 mAChR (top of curve, % activity vs MAX control ligand, FLIPR Ca2+) came out at 17%; on human M5 mAChR it was 92%. Further, the “M4 Top (%)” value on human M4 mAChR was determined as 100%. Besides, the “M2 Top (%)” value at human M2 mAChR was 1%. Further, in series [1], the “plasma levels compared between treatments” value is “about mid-way between the levels of xanomeline-d16 and xanomeline-d13”.

Source of the values: patent US11534434B2 (Karuna Therapeutics, Inc., priority 2019, dated 2022).
